“And” between values parts separate entries of the source, which are not always exact repeats. Identical values can stand only once.
Key:
HEK293 cells [1] = assay: Intracellular NAD+ in HEK293 cells after NaMN or NR (diaphorase-based assay); type: cell-based, human; details: HEK293, 1 mM, 8 h incubation, FIG. 1
Method: (§1) The ability of nicotinic acid mononucleotide, NaMN, to serve as an NAD^+ enhancing agent in mammalian cell lines, Neuro2a and HEK293 cells was examined after an 8 h incubation. NaMN was added to cell growth media at a concentration of 1 mM. All cell treatments were done in duplicate. Nicotinamide riboside (NR) at 1 mM concentration was performed as a positive control. Untreated cells served as negative controls. Cells were treated for the allotted time then harvested by trysin detachment and pelleting. Cells were counted by haemocytometer and then lysed by treatment with 100 μL perchloric acid (7%). Lysates were then neutralized by treatment with NaOH and K2PO4 solutions. NAD^+ concentrations were determined by a diaphorase-based assay. NAD^+ standards were also run to establish a standard curve. The results are graphically depicted in FIG. 1.

Neuro2a cells = assay: Intracellular NAD+ in Neuro2a cells after NaMN or NR (diaphorase-based assay); type: cell-based; details: 1 mM, 8 h incubation, FIG. 1
Method: as §1

HEK-293 cells = assay: NAD+ concentration in HEK-293 cells after 24 h EtNaMN (NAD+ cycling assay); type: cell-based, human
Method: HEK-293 cells were treated with 0 μM, 250 μM, and 500 μM of ((2R,3R,4S,5R)-3,4-dihydroxy-5-(3-(ethoxycarbonyl)pyridin-1-ium-1-yl)tetrahydrofuran-2-yl)methyl hydrogen phosphate (EtNaMN) at an initial density of 500,000 cells per well. After 24 h treatment, the NAD^+ concentration was determined using a known NAD^+ cycling assay (Jacobson, E. L. et al., Arch. Biochem. Biophys., 175: 627-634 (1976)). The cells were washed with PBS, counted by haemocytometry and pelleted. The cells were then treated with 7% perchloric acid, and then neutralized with 1 M NaOH and 500 mM potassium phosphate pH 8.5. NAD^+ contents were then measured on a plate reader using diaphorase and lactate dehydrogenase using Resazurin as a dye that is reduced to rezarufin (emission 560 nm). NAD^+ levels were quantitated using a standard curve using known NAD^+ concentrations. NAD^+ concentrations are determined to nmol NAD^+/10^6 cells.

[2] = system: tissue NAD concentrations; assay: Tissue NAD concentrations in mice 4 h after i.p. injection (cycling assay); type: in vivo; details: 500 mg/kg i.p. single dose, vs PBS control
Method: Sterile solutions of O-methyl-NaMN and O-ethylNaMN were prepared by combination with phosphate buffered saline for injection into mice. Mice were injected by intraperitoneal injection at a single dosage of 500 mg/kg. All mice were weighed to achieve correct injection volume. Each group was composed of 5 mice, and mice were sacrificed at 4 hours. Control mice received only PBS. At sacrifice, mice were first injected with an anesthetic dose of ketamine to obtain blood by cardiac puncture. Then mice were euthanized and tissues harvested and frozen immediately in liquid nitrogen.
To determine tissue NAD concentrations, tissues were weighed and pulverized in liquid nitrogen. Perchloric acid (7%) was then added to pulverized tissue samples and neutralized by NaOH and 250 mM potassium phosphate buffer pH 8.5. Samples were pelleted to remove insoluble material. NAD concentrations were determined by cycling assay as published (Li et al., Methods in molecular biology 1241, 39-48, doi:10.1007/978-1-4939-1875-1_4 (2015)). […] This property is desirable, as effects expected from NAD enhancement in muscle include mitochondrial biogenesis and improved insulin sensitivity, as noted for other agents that increase NAD concentrations in this tissue^3. In fact, the extent of NAD raising exceeds those observed for other agents.

HEK293 cells [3] = assay: Cellular NAD at 14 h in HEK293 cells (cycling assay); type: cell-based, human; parameters: unit not given here
Method: (§2) Neu2a, HEK293, HEPG2 and C2C12 cells were cultured and the dosage of the corresponding compound was increased by amounts of 0, 100 μM, 400 μM and 800 μM for each cell line. Each experiment was performed in triplicate. Cells were incubated for a period of 14 hr. At termination of incubation, media was removed and cells were treated with trypsin to gently detach and cells counted. Cell pellets were obtained by centrifugation, and then […] of 7% perchloric acid was added to extract NAD. Extracts obtained were then neutralized by addition of NaOH and 250 mM potassium phosphate buffer pH 8.5. NAD was determined by a cycling assay that measures NAD concentrations by comparison to a standard curve (Li et al., 2015).

HEPG2 cells = assay: Cellular NAD at 14 h in HEPG2 cells (cycling assay); type: cell-based; parameters: unit not given here
Method: as §2

Neu2a cells = assay: Cellular NAD at 14 h in Neu2a cells (cycling assay); type: cell-based; parameters: cellular NAD: unit not given here
Method: as §2

C2C12 cells = assay: Cellular NAD at 14 h in C2C12 cells (cycling assay); type: cell-based, murine; parameters: cellular NAD: unit not given here
Method: as §2

Structure (SMILES): NC(=O)c1ccc[n+]([C@@H]2O[C@H](CO)[C@@H](O)[C@H]2O)c1 [NR, Nicotinamide riboside]
- intracellular NAD+ content vs untreated cells (HEK293 cells [1]): increased NAD^+ contents in cells
- intracellular NAD+ content vs untreated cells (Neuro2a cells): increased NAD^+ contents in cells

Structure (SMILES): O=C(O)c1ccc[n+]([C@@H]2O[C@H](COP(=O)(O)O)[C@@H](O)[C@H]2O)c1 [NaMN, nicotinic acid mononucleotide]
- intracellular NAD+ content vs untreated cells (HEK293 cells [1]): No intracellular increase in NAD^+
- intracellular NAD+ content vs untreated cells (Neuro2a cells): No intracellular increase in NAD^+

Structure (SMILES): CCOC(=O)c1ccc[n+]([C@@H]2O[C@H](COP(=O)([O-])O)[C@H](O)[C@@H]2O)c1 [O-EtNaMN, ((2R,3R,4S,5R)-3,4-dihydroxy-5-(3-(ethoxycarbonyl)pyridin-1-ium-1-yl)tetrahydrofuran-2-yl)methyl hydrogen phosphate]
- NAD+ Concentration (HEK-293 cells; HEK293, 250 μM EtNaMN): 220 μM ± 42 μM
- NAD+ Concentration relative to control (HEK-293 cells; HEK293, 250 μM EtNaMN): 1.29 and 1.29 ± 0.24
- NAD+ Concentration (HEK-293 cells; HEK293, 500 μM EtNaMN): 270 μM ± 35 μM
- NAD+ Concentration relative to control (HEK-293 cells; HEK293, 500 μM EtNaMN): 1.59 and 1.59 ± 0.21
- increase in tissue NAD, blood [2]: increases in blood were not apparent
- increase in tissue NAD, kidney [2]: approximately twofold
- increase in tissue NAD, liver ([2]; liver): greater than twofold
- increase in tissue NAD, skeletal muscle [2]: no apparent effect
- cellular NAD (HEK293 cells [3]; HEK293, 100 μM): 1128 ± 95
- cellular NAD (HEK293 cells [3]; HEK293, 400 μM): 1144 ± 132
- cellular NAD (HEK293 cells [3]; HEK293, 800 μM): 1133 ± 168
- cellular NAD (HEPG2 cells; HEPG2, 100 μM): 2222 ± 99
- cellular NAD (HEPG2 cells; HEPG2, 400 μM): 2331 ± 429
- cellular NAD (HEPG2 cells; HEPG2, 800 μM): 2287 ± 181
- cellular NAD (Neu2a cells; 100 μM): 1624 ± 24
- increase in cellular NAD vs control (Neu2a cells; 100 μM): ~40%
- cellular NAD (Neu2a cells; 400 μM): 1727 ± 40.8
- cellular NAD (Neu2a cells; 800 μM): 1744 ± 151
- increase in cellular NAD concentrations vs control (Neu2a cells; 800 μM): 50%
- increase in NAD concentrations vs control (C2C12 cells; 800 μM, cell line not given, figures fit C2C12): 68%
- cellular NAD (C2C12 cells; C2C12, 100 μM): 1886 ± 183
- cellular NAD (C2C12 cells; C2C12, 400 μM): 1766 ± 69.5
- cellular NAD (C2C12 cells; C2C12, 800 μM): 2320 ± 208

Structure (SMILES): COC(=O)c1ccc[n+]([C@@H]2O[C@H](COP(=O)([O-])O)[C@H](O)[C@@H]2O)c1 [O-MeNaMN, ((2R,3R,4S,5R)-3,4-dihydroxy-5-(3-(methoxycarbonyl)pyridin-1-ium-1-yl)tetrahydrofuran-2-yl)methyl hydrogen phosphate]
- increase in tissue NAD, blood [2]: Neither ethyl nor methyl derivatives appeared active as NAD enhancers in blood
- increase in tissue NAD, kidney [2]: ~2.5 fold
- increase in tissue NAD, skeletal muscle [2]: unique capability to increase skeletal muscle NAD concentrations
- cellular NAD (HEK293 cells [3]; HEK293, 100 μM): 1178 ± 65
- cellular NAD (HEK293 cells [3]; HEK293, 400 μM): 947 ± 101
- cellular NAD (HEK293 cells [3]; HEK293, 800 μM): 1440 ± 204
- cellular NAD (HEPG2 cells; HEPG2, 100 μM): 2227 ± 280
- cellular NAD (HEPG2 cells; HEPG2, 400 μM): 1663 ± 61
- cellular NAD (HEPG2 cells; HEPG2, 800 μM): 2383 ± 155
- cellular NAD (Neu2a cells; 100 μM): 1204 ± 158
- cellular NAD (Neu2a cells; 400 μM): 1523 ± 145
- cellular NAD (Neu2a cells; 800 μM): 2125 ± 187
- increase in cellular NAD concentrations vs control (fold, in words) (Neu2a cells; 800 μM): more than two fold
- cellular NAD (C2C12 cells; C2C12, 100 μM): 2864 ± 565
- cellular NAD (C2C12 cells; C2C12, 400 μM): 2596 ± 572
- cellular NAD (C2C12 cells; C2C12, 800 μM): 2574 ± 355
- increase in cellular NAD concentrations vs control (C2C12 cells; all concentrations tested (100, 400, 800 μM), cell line not given, figures fit C2C12): at least 70%

— patent US20210388018A1, “METHYL AND ETHYL NICOTINATE-RIBOSIDE-5-PHOSPHATES, PREPARATION THEREOF AND METHODS OF USE THEREOF” (Cornell University, priority 2018, published 2021)
